Laboratory results: patent US5397777A, “Meso poly(4-sulfonatophenyl) porphines as MRI image enhancing agents” (Health Research, Inc., priority 1993, dated 1995)
Like-named read-outs stand apart in the source and are kept apart here.

Assays:
[1] = test system: SMT-F (spontaneous mammary carcinoma); experiment: Magnetic resonance imaging of tumor bearing mouse, signal intensity; format: in vivo, DBA/2HaRos-d^+Ha mice; details: for tumor appearance in MR image / kidney signal in MR image / Normalized Signal Intensity, confidence interval / Normalized Signal Intensity, range / Normalized Signal Intensity, mean ± SD: 100 mg/kg; for kidney signal in MR image: region of the pelvis; for Normalized Signal Intensity, confidence interval: 99% (t test); for Normalized Signal Intensity, range: control 0.652-0.701; for Normalized Signal Intensity, mean ± SD: control 0.685 ± .015
Experimental: Control (upper left), 1 hour post injection (100 mg/kg) of Mn(III)TPPS3 (upper right), and 24 hours post injection (lower left). […] Image intensity working standards (top to bottom) 28 mM CuSO4 in 1N HCl, 5 mM GdDTPA in isotonic saline and baby oil.
Magnetic resonance images were made using a custom-built small animal (mouse) transmitter/receiving coil similar to the design of Henkelman et al., Small Animal Imaging With A Clinical Imager. Magn. Reson. Med. 4:61-66; 1987, and tuned to 15 MHz for use with a Diasonics™ 0.35 Tesla clinical scanner. Images were made using a TR of 500 msec. and a TE of 50 msec. with a slice thickness of 2.5 mm.
Images were analyzed using a Hewlett Packard Vectra™ ES/12 personal computer with high resolution VGA graphics after digitization via a Dage 70™ camera with Vidicon tube utilizing a Matrox™ MVP AT image capture/display board. Signal intensity measurements were made from selected areas of interest (AOI) using Image-Pro II™ software (Media Cybernetics, Silver Spring, MD). Any suitable similar apparatus and software can of course be used. Generally an entire section (image slice) of tumor was circumscribed using a free-form area of interest option. The area of interest was then represented by a histogram relating pixel frequency to gray level. Each gray level (0-255) was multiplied by its associated frequency. The resulting products were summed and divided by the area of interest in units of centimeter squared. The procedure was repeated three times to determine a mean value for the tumor at each time period. The same procedure was carried out for the midrange working standard (5 mM Gd DTPA).
The visual differences (intensity) noted between control and treated (FIG. 2) were quantitated using mean intensity values normalized to corresponding working standards. The results (table 4) indicate that differences between control and enhanced and between one and 24 hrs are significant. Signal intensity measured at 24 hrs is 21% higher than control and 7% higher than the value determined at 1 hr. Note that this analysis ignores the fact that the increase in intensity at 24 hrs is actually concentrated into a relatively small area of the tumor by averaging over the entire section.

[2] = mouse, in vivo; for Ratios of the concentration of porphyrins in liver to kidney / Ratios of the concentration of porphyrins in tumor to muscle: iv
Experimental: Measured concentrations are averages for two mice.
Biodistribution (liver, kidney, muscle and tumor) of the four manganese porphyrins was measured by absorption spectroscopy of ammonia/methanol mixtures and expressed as μg metalloporphyrin per gram of tissue (wet weight). Quantitation was based upon the extinction coefficient for each porphyrin as predetermined in the extraction solutions.
SMT-F (spontaneous mammary carcinoma) was maintained in the laboratory on a biweekly schedule in which 1 mm^3 pieces of tumor were implanted in the flank of DBA/2HaRos-d^+Ha mice. Porphyrins were delivered by intravenous injection in the tail vein.
The distribution of each porphyrin in kidney, liver, muscle and tumor was determined at 1 and 24 hours post injection.

[3] = test system: SMT-F (spontaneous mammary carcinoma); experiment: Relaxivity in excised tumor tissue at 10.7 MHz; format: in vivo, DBA/2HaRos-d^+Ha mice; details: 24 hours post injection; for Relaxivity of tumors excised from mice (relaxation rate of treated minus untreated tissue divided by porphyrin concentration in tumor tissue): 100 mg/kg, 10.7 MHz, 37° C.
Experimental: Relaxation and biodistribution measurements were carried out using procedures known to those skilled in the art, e.g., Fiel et. al., supra. Briefly, the longitudinal relaxation time (T1) for excised tissue was measured at 37° C., with a Praxis II™ relaxometer (Praxis Corporation, San Antonio, Tex.) operating at 10.7 MHz and employing a saturation recovery pulse sequence.
Relaxivity in tumor tissue was measured for each porphyrin on excised tissue at 10.7 MHz, 24 hours post injection of a 100 mg/kg dose (table 3).
*Expressed as the relaxation rate of tissue from treated animals (24 hrs)
minus the relaxation rate of tissue from untreated animal (control)
divided by the concentration of porphyrin in the tumor tissue.

[4] = test system: L1210 cells; set-up: unit not given beside the values; details: mouse, 48 h
[5] = Hydrophobicity of the porphyrins; format: physicochemical; details: rank within the series of four

Molecule	Ratios of the concentration of porphyrins in liver to kidney ([2]; 60 min)	Ratios of the concentration of porphyrins in tumor to muscle ([2]; 60 min)	Ratios of the concentration of porphyrins in liver to kidney ([2]; 1440 min)	tumor uptake, tumor/muscle ratio and relaxivity in tumor tissue, overall ranking [3]	Relaxivity of tumors excised from mice (relaxation rate of treated minus untreated tissue divided by porphyrin concentration in tumor tissue) [3]	Ratios of the concentration of porphyrins in tumor to muscle ([2]; 1440 min)	other results
O=S(=O)([O-])c1ccc(-c2c3nc(c(-c4ccc(S(=O)(=O)[O-])cc4)c4ccc([nH]4)c(-c4ccc(S(=O)(=O)[O-])cc4)c4nc(c(-c5ccccc5)c5ccc2[nH]5)C=C4)C=C3)cc1.[Mn+3] [MnTPPS3, manganese III meso-[tri(4-sulfonatophenyl)phenyl]porphine]	0.7	3.2	1.8	superior to all others in regard to tumor uptake, tumor/muscle ratio and relaxivity in tumor tissue	–	–	tumor appearance in MR image ([1]; 1 hour post injection): the tumor appears somewhat brighter than the control, although it remains homogeneous; kidney signal in MR image ([1]; 1 hour post injection): high intensity signal in the region of the pelvis; kidney signal in MR image ([1]; 1 hour post injection, listed as Mn(III)TPPS3, 100 mg/kg): concentration of porphyrin in kidneys at 1 hour; Normalized Signal Intensity, confidence interval ([1]; 1 hr post injection, tumor): 0.769-0.784; Normalized Signal Intensity, range ([1]; 1 hr post injection, tumor): 0.766-0.780; Normalized Signal Intensity, mean ± SD ([1]; 1 hr post injection, tumor): 0.774 ± .006; tumor appearance in MR image ([1]; 24 hours post injection): the tumor appears very heterogeneous; tumor appearance in MR image ([1]; 24 hours post injection, listed as Mn(III)TPPS3, 100 mg/kg): heterogeneous signal enhancement in tumor at 24 hours; Normalized Signal Intensity, confidence interval ([1]; 24 hrs post injection, tumor): 0.815-0.841; Normalized Signal Intensity, range ([1]; 24 hrs post injection, tumor): 0.820-0.836; Normalized Signal Intensity, mean ± SD ([1]; 24 hrs post injection, tumor): 0.828 ± .007; Signal intensity increase over the value at 1 hr ([1]; 24 hrs vs 1 hr, tumor): 7%; Signal intensity increase over control ([1]; 24 hrs vs control, tumor): 21%; concentration in kidney [2]: high concentration found in the kidney at 1 hour; kidney clearance [2]: cleared rapidly and concentrated in the urine; LD50 for L1210 cells in culture at day 2 [4]: 1010
O=S(=O)([O-])c1ccc(-c2c3nc(c(-c4ccc(S(=O)(=O)[O-])cc4)c4ccc([n-]4)c(-c4ccc(S(=O)(=O)[O-])cc4)c4ccc([n-]4)c(-c4ccc(S(=O)(=O)[O-])cc4)c4nc2C=C4)C=C3)cc1.[Mn+3] [MnTPPS4, manganese III meso-tetra(4-sulfonatophenyl)porphine, reference compound]	0.3	–	0.3	–	0.207 ± .004	–	hydrophobicity [5]: the least hydrophobic porphyrin
manganese III meso-[cis-di(4-sulfonatophenyl)diphenyl]porphine [MnTPPS2(cis)]	6.4	2.8	5.5	superior to MnTPPS4	–	9.7	Relaxivity of tumors excised from mice (relaxation rate of treated minus untreated tissue divided by porphyrin concentration in tumor tissue) ([3]; measurement from one mouse): 0.361
manganese III meso-[trans-di(4-sulfonato-phenyl)diphenyl]porphine [MnTPPS2(trans)]	4.4	2.3	3.8	superior to MnTPPS4	0.296 ± .045	11.6	–
